Here are results for 32 molecules from US20150307491A1, “SUBSTITUTED PYRIDOPYRAZINES AS SYK INHIBITORS” (HUTCHISON MEDIPHARMA LIMITED, priority 2012, published 2015).

One experiment has as its system RBL-2H3 cells. As to the kind of experiment: IgE-induced Beta-hexosaminidase secretion in RBL-2H3 cells. The format is cell-based. The settings on record: Rattus norvegicus; RBL-2H3 cells sensitized with SPE-7, stimulated with DNP-BSA. Here is the method:
For the determination of IgE-induced Beta-hexosaminidase secretion, RBL-2H3 cells (SIBS) are seeded in 96 well plates at 4×10^4 cells per well and incubated in MEM media with 15% FBS and Glutamine ([…]) for 4 hours and sensitized with 0.5 ug/ml of SPE-7 overnight. Cells are washed 3 times with Tyrode's buffer and incubated in the presence or absence of various concentrations of the testing compound for 20 min at 37° C., 5% CO2. Cells are stimulated by adding 10 μL of DNP-BSA solution (150 ng/mL) to each well and incubating for 45 minutes at 37° C., 5% CO2. Then, 45 μL of the supernatant is taken and incubated with 100 μL of 1 mM 4-Nitrophenyl N-acetyl-β-D-glucosaminide (Sigma, Cat. No. N9376), which is diluted in 0.05 M citrate buffer (pH 4.5), for 1.5 hr at 37° C. The reactions are quenched by adding 185 μL of 0.05 M sodium carbonate buffer (pH 10.0). Plates are read at 405 nm on Multiskan (MK 3).

The target in the next experiment is Syk kinase (Homo sapiens, UniProt P43405). The experiment is described as follows: SYK enzymatic assay. The format is biochemical. The settings on record: Tyr 2 Peptide, 8 concentrations 1 μM down to 0.0003 μM. Here is the method:
Syk kinase assay are performed in vitro using Kit-Tyr 2 Peptide (Invitrogen, Cat. No. PV3191) and in a 384-well assay plate. […] The 384-well assay plate (Corning, Cat. No. 3575) is mixed and incubated at room temperature for 1 hour. 10 μL of the Development Solution (prepared by diluting Development Reagent A (Cat. No. PV3297) to 1/32 with Development Buffer (Cat. No. PV3127)) is then added to each well, mixed and incubated at room temperature for another 1 hour. The reactions are then stopped by adding 10 μL of the Stop Reagent (Invitrogen, Cat. No. PV3094), and the plate is read with Wallac 1420 VICTOR^3 Multilabel Counter (PerkinElmer™) at 445 nm and 520 nm fluorescence. All compounds are tested at 8 concentrations (1 μM down to 0.0003 μM) using a 1:3 serial dilution scheme.

A further experiment concerns the target T1, Flt3 kinase (Homo sapiens, UniProt P36888).
T1 construct: purchased Invitrogen PV3182
T1 sequence (P36888 564-993 limits assumed): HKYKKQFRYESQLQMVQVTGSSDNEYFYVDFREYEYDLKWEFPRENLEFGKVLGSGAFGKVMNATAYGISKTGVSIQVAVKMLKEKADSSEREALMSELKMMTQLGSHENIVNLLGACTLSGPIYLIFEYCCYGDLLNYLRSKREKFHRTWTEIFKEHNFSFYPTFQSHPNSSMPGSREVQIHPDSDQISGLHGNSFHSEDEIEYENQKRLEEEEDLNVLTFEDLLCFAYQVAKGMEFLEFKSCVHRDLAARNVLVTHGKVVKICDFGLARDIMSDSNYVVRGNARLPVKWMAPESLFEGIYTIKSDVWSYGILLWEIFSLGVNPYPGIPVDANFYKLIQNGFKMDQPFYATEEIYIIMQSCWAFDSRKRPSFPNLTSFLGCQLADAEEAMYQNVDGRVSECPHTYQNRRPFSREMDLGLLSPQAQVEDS
As to the kind of experiment: Z-lyte kinase assay of Flt-3. Conditions: Z-LYTE Tyr 2 peptide; final concentrations 3 to 0.0014 μM. The format is biochemical. On the procedure:
Z-lyte kinase assay of Flt-3:
Dilute 5× Kinase Buffer to 1,33× with ddH2O
Serially dilute the test compounds to 4 folds of the concentrations desired, keeping the DMSO concentration at 8%. The final concentrations were 3, 1, 0.33, 0.11, 0.037, 0.012, 0.004, 0.0014 μM, and the final concentration of DMSO was 2%,
Prepare Kinase/Peptide Mixture by diluting the kinase to 0.12 μg/mL and the Z-LYTE™ Tyr 2 peptide to 4 μM in 1.33× Kinase Buffer. Mix gently by pipetting. 4) Phcspho-peptide Solution (PP solution)
Add 0.4 μL of Z-LYTE™ Tyr 2 Phospho-peptide to 99.6 μL of 1.33× Kinase Buffer.
Prepare ATP Solution by diluting the 10 mM of ATP in 1.33× Kinase Buffer to 1.88 mM.
Dilute Development Reagent A with Development Buffer as 1:64.
1) Kinase reaction (10 μL of Volume) • a. Add 2.5 μL of 4× test Cpds to each well except C1, C2, C3 wells
Add 2.5 μL of 8% DMSO to C1, C2, C3 wells • b. Put the 384-plate on ice • c. Add 5 μL of P/K mixture to each test Cpd wells and C1, C2 wells • d. Add 5 μL of PP Solution to C3 well • e. Add 2.5 μL of 1,33× kinase buffer to C1 and C3 wells • f. Add 2.5 μL of 4×ATP Solution to each test Cpd wells and C2 well, respectively.
Shake the plate for 30 Sec and centrifuge (1500 rpm, 1 min) • g. Seal the plate to protect from the light and incubate the plate for 1 hour at RT (25-30° C.) 2) Development reaction • a. Add 5 μL of the Development solution to all wells • b. Shake the plate for 30 Sec and centrifuge (1500 rpm, 1 min) • c. Seal the plate to protect from the light and incubate the plate for 1 hour at RT (25-30° C.) 3) Stop and read • a. Add 5 μL of the Stop reagent to all wells • b. Shake the plate for 30 Sec and centrifuge (1500 rpm, 1 min) • c. Measure the value of Coumarin (Ex400 nm, Em445 nm) and fluorescein (Ex400 nm, Em520 nm), respectively. 4. Data analysis
Emission Ratio (ER) Coumarin Emission (445 nm)/Fluorescein Emission (520 nm)
inhibition ratio (IR)=1−% Photest Cpd/% PhoC2%
IC50 Value: determined with add-in software for Microsoft Excel, XLfit™ (version 2.0) from ID Business Solutions (Guildford: UK)

Molecules are shown by their SMILES.

`O=C(C(F)F)N1CCO[C@H](COc2nc(-c3ccc(C4CCOCC4)cc3)cc3nccnc23)C1` [Compound 9]: the IC50 (in general, the point on the concentration scale where inhibition reaches its midpoint) in the experiment on RBL-2H3 cells was in the range of 100 to 1000 nM; against Syk kinase, 1 to 100 nM.
For `O=C(C(F)F)N1CCO[C@H](COc2nc(-c3ccc(N4CCOCC4)c(F)c3)cc3nccnc23)C1` [Compound 15], the results for the concentration for half-maximal inhibition (IC50) with RBL-2H3 cells and at Syk kinase were 100 to 1000 nM and 1 to 100 nM, respectively.
With `CN(C)c1ccc(-c2cc3nccnc3c(OC[C@@H]3CN(C(=O)C(F)F)CCO3)n2)cc1F` [Compound 32], the IC50 in the experiment with RBL-2H3 cells was 1 to 100 nM; at Flt3 kinase, above 3000 nM.
`CC(=O)N1CCO[C@H](COc2nc(-c3ccc(N(C)C)cc3)cc3nccnc23)C1` [Compound 67]: the 50% inhibitory concentration (IC50) was 1 to 100 nM in the experiment with RBL-2H3 cells and 2520 nM against Flt3 kinase.
As for `CN(C)c1ccc(-c2cc3nccnc3c(OC[C@@H]3CN(C(=O)C4CC4)CCO3)n2)cc1` [Compound 69], the figures for the IC50 in the experiment with RBL-2H3 cells and on Flt3 kinase were 1 to 100 nM and above 3000 nM, respectively.
With `CN(C)c1ccc(-c2cc3nccnc3c(OC[C@@H]3CN(C(=O)CC4CC4)CCO3)n2)cc1` [Compound 70], the IC50 in the experiment with RBL-2H3 cells fell in the range of 100 to 1000 nM; on Syk kinase, 1 to 100 nM.
In turn, `CN(C)c1ccc(-c2cc3nccnc3c(OC[C@@H]3CN(C(=O)[C@H]4CC[C@H](O)CC4)CCO3)n2)cc1` [Compound 75] came in with a half-inhibitory concentration (IC50) on Syk kinase of 1 to 100 nM.
As to `CC(C)S(=O)(=O)N1CCO[C@H](COc2nc(-c3ccc(N(C)C)cc3)cc3nccnc23)C1` [Compound 89], the half-inhibitory concentration (IC50) is 100 to 1000 nM in the experiment with RBL-2H3 cells and 1 to 100 nM on Syk kinase.
Regarding `CN(C)c1ccc(-c2cc3nccnc3c(OC[C@@H]3CN(S(=O)(=O)C4CC4)CCO3)n2)cc1` [Compound 90], the IC50 with RBL-2H3 cells was 1 to 100 nM; against Flt3 kinase, above 3000 nM.
On to `CN(C)c1ccc(-c2cc3nccnc3c(OC[C@@H]3CN(S(C)(=O)=O)CCO3)n2)cc1` [Compound 94], for which the half-maximal inhibitory concentration (IC50) is 1 to 100 nM in the experiment on RBL-2H3 cells and 2010 nM against Flt3 kinase.
Regarding `CN(C)c1ccc(-c2cc3nccnc3c(OC[C@@H]3CN(C(=O)[C@H]4CCOC4)CCO3)n2)cc1` [Compound 95], the half-inhibitory concentration (IC50) with RBL-2H3 cells was 1 to 100 nM; at Flt3 kinase it was 2820 nM.
The matching figures for `CN(C)c1ccc(-c2cc3nccnc3c(OC[C@@H]3CN(C(=O)C(F)F)CCO3)n2)cc1` [Compound 100]: 1 to 100 nM and above 3000 nM.
Consider `CN(C)c1ccc(-c2cc3nccnc3c(OC[C@@H]3CN(S(=O)(=O)CCN4CC[C@H](O)C4)CCO3)n2)cc1` [Compound 103], for which the IC50 in the experiment with RBL-2H3 cells is 100 to 1000 nM.
Still for that read-out and setting: with `CN(CC#N)CCS(=O)(=O)N1CCO[C@H](COc2nc(-c3ccc(N(C)C)cc3)cc3nccnc23)C1` [Compound 104] the figure was 100 to 1000 nM; with `Cn1ncc2cc(-c3cc4nccnc4c(OC[C@@H]4CN(S(C)(=O)=O)CCO4)n3)ccc21` [Compound 105], 1 to 100 nM.
For `CS(=O)(=O)N1CCO[C@H](COc2nc(-c3ccc4c(c3)OCCO4)cc3nccnc23)C1` [Compound 109], the half-inhibitory concentration (IC50) with RBL-2H3 cells lay within 100 to 1000 nM; against Syk kinase, 1 to 100 nM.
`CS(=O)(=O)N1CCO[C@H](COc2nc(-c3ccc4c(c3)OCO4)cc3nccnc23)C1` [Compound 110]: the half-maximal inhibitory concentration (IC50) in the experiment on RBL-2H3 cells was in the range of 100 to 1000 nM.
For the molecule `CS(=O)(=O)N1CCO[C@H](COc2nc(-c3ccc4ncccc4c3)cc3nccnc23)C1` [Compound 111], the IC50 in the experiment on RBL-2H3 cells was in the range of 100 to 1000 nM.
As to `CCN(CC)c1ccc(-c2cc3nccnc3c(OC[C@@H]3CN(S(C)(=O)=O)CCO3)n2)cc1` [Compound 119], the 50% inhibitory concentration (IC50) in the experiment on RBL-2H3 cells fell in the range of 1 to 100 nM.
In the case of `Cn1ccc2ccc(-c3cc4nccnc4c(OC[C@@H]4CN(S(C)(=O)=O)CCO4)n3)cc21` [Compound 120], the concentration for half-maximal inhibition (IC50) with RBL-2H3 cells lay within 1 to 100 nM.
For the molecule `CC(=O)N1CCN(c2ccc(-c3cc4nccnc4c(OC[C@@H]4CN(S(C)(=O)=O)CCO4)n3)cc2)CC1` [Compound 122], the IC50 in the experiment on RBL-2H3 cells lay in the range of 1 to 100 nM.
As for `CN(C)c1ccc(-c2cc3nccnc3c(O[C@@H]3CCOC3)n2)cc1` [Compound 123], the IC50 with RBL-2H3 cells is 1 to 100 nM.
Still for that read-out and setting: with `CS(=O)(=O)N1CCC(c2ccc(-c3cc4nccnc4c(O[C@@H]4CCOC4)n3)cc2)CC1` [Compound 124] the figure was 1 to 100 nM; with `CN1CCN(c2ccc(-c3cc4nccnc4c(O[C@@H]4CCOC4)n3)cc2)CC1` [Compound 125], 1 to 100 nM; with `COc1cc(-c2cc3nccnc3c(OC[C@@H]3CN(S(C)(=O)=O)CCO3)n2)ccc1OCCN(C)C` [Compound 126], 100 to 1000 nM.
For `CN(C)c1ccc(-c2cc3nccnc3c(OC3CCCOC3)n2)cc1` (centres unmarked) [Compound 127], the half-inhibitory concentration (IC50) with RBL-2H3 cells is 1 to 100 nM.
On the same count and under the same terms, with `CNC(=O)COc1ccc(-c2cc3nccnc3c(OC[C@@H]3CN(S(C)(=O)=O)CCO3)n2)cc1` [Compound 129] the figure was 100 to 1000 nM; with `CCN(CC)c1ccc(-c2cc3nccnc3c(OC[C@@H]3CN(C(C)=O)CCO3)n2)cc1` [Compound 131], 1 to 100 nM; with `CNc1ccc(-c2cc3nccnc3c(O[C@@H]3CCOC3)n2)cc1` [Compound 133], 1 to 100 nM.
The same measure, in the same setting: with `Cc1cc(-c2cc3nccnc3c(OC[C@@H]3CN(S(C)(=O)=O)CCO3)n2)ccc1N(C)C` [Compound 134] the figure was 1 to 100 nM; with `CN(C)c1ccc(-c2cc3nccnc3c(OC[C@@H]3CN(C(N)=O)CCO3)n2)cc1` [Compound 136], 1 to 100 nM.
On to `CNC(=O)N1CCO[C@H](COc2nc(-c3ccc(N(C)C)cc3)cc3nccnc23)C1` [Compound 137], for which the 50% inhibitory concentration (IC50) with RBL-2H3 cells was in the range of 1 to 100 nM.
